From PubChem BioAssay (NCI)
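Cultured in 96-well plates, cells were exposed to test compound for 48 hours across five concentrations. Abbreviation: GI50, concentration required for 50% inhibition of growth. Definition used: TGI = concentration required for complete inhibition of growth.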

What was measured:
Assay in all cases: growth of human tumour cells (NCI), 48 h
OVCAR-5 ovarian = test system: OVCAR-5 ovarian
TK-10 renal = test system: TK-10 renal
HCC-2998 colon = test system: HCC-2998 colon
MCF7 breast = test system: MCF7 breast
UO-31 renal = test system: UO-31 renal
K-562 leukemia = test system: K-562 leukemia
SNB-19 CNS = test system: SNB-19 CNS
SNB-75 CNS = test system: SNB-75 CNS
RPMI-8226 leukemia = test system: RPMI-8226 leukemia
NCI-H23 lung = test system: NCI-H23 lung

SMILES | GI50 (OVCAR-5 ovarian) [µM] | TGI (OVCAR-5 ovarian) [µM] | GI50 (TK-10 renal) [µM] | TGI (TK-10 renal) [µM] | GI50 (HCC-2998 colon) [µM] | TGI (HCC-2998 colon) [µM] | GI50 (MCF7 breast) [µM] | TGI (MCF7 breast) [µM] | GI50 (UO-31 renal) [µM] | TGI (UO-31 renal) [µM] | GI50 (K-562 leukemia) [µM] | TGI (K-562 leukemia) [µM] | GI50 (SNB-19 CNS) [µM] | TGI (SNB-19 CNS) [µM] | GI50 (SNB-75 CNS) [µM] | TGI (SNB-75 CNS) [µM] | GI50 (RPMI-8226 leukemia) [µM] | TGI (RPMI-8226 leukemia) [µM] | GI50 (NCI-H23 lung) [µM] | TGI (NCI-H23 lung) [µM]
C[C@]12CCc3sc(Nc4ccc(O)cc4)nc3C1=CC[C@@H]1[C@@H]2CC[C@]2(C)C(=O)CC[C@@H]12 | 3.91 | > 100 | 2.01 | 4.4 | 4.11 | > 100 | 1.66 | 4.26 | 1.54 | 2.9 | 2.96 | > 100 | 10.9 | > 100 | 2.76 | > 100 | 2.35 | 7.07 | 3.96 | > 100
COc1ccc(-c2c3c(nc4nc(SC)nc(SC)c24)CCCC3)cc1OC |  | > 100 |  | > 100 |  | > 100 |  | > 100 |  | > 100 |  | > 100 |  | > 100 |  | > 100 |  | > 100 |  | > 100
CCc1nnc(-c2nsc3ccccc23)s1 |  | > 100 |  | > 100 |  | > 100 |  |  |  | > 100 |  | > 100 |  | > 100 |  | > 100 |  | > 100 |  | > 100
CCSc1nc(=[N+]2CCCC2)ss1 |  | > 100 |  | > 100 |  | > 100 |  | 41.1 |  | > 100 |  | 24.1 |  | > 100 |  | > 96.6 |  | 22.8 |  | > 79.9
NC(=S)N/N=C1\c2ccccc2CCC1CCC1(O)CCc2ccccc2C1=O (configuration not stated) |  | 74.2 |  | 54.3 |  |  |  | 46.4 |  | 29.4 |  |  |  | > 100 |  | 45 |  | 70.4 |  | 87
CC(c1ccccc1)/[N+]([O-])=C/c1ccccc1 (configuration not stated) |  | > 100 |  | > 100 |  | > 100 |  |  |  | > 100 |  | > 100 |  | > 100 |  | > 100 |  | > 100 |  | > 100
O=C(O)CC1OCC=C2CN3CCC45C6=CC(=O)C(=O)C([N+](=O)[O-])=C6NC4C1C2CC35 (configuration not stated) |  | > 100 |  | > 100 |  | > 100 |  | > 100 |  | > 100 |  | > 100 |  | > 100 |  | > 100 |  | > 100 |  | > 100
C/C(=N\NC(=S)Nc1ccc(C)cc1)c1nc2ncccc2[nH]1 |  | 18.6 |  | 37 |  | 20.2 |  | 13.5 |  | 4.05 |  | 24.2 |  | > 100 |  | 22.5 |  | > 100 |  | 19.8
CN1CCN(c2cc(-c3cc4ccccc4o3)oc(=O)c2C#N)CC1 |  | > 100 |  | > 100 |  | > 100 |  |  |  | > 100 |  | > 100 |  | > 100 |  | > 100 |  | > 100 |  | > 100
O=C(O)CC1(CC(=O)O)Nc2ccccc2SC1=O |  | > 100 |  | > 100 |  | > 100 |  | > 100 |  | > 100 |  | > 100 |  | > 100 |  | > 100 |  | > 100 |  | > 100
Cc1ccc(Nc2nc(NS(=O)(=O)c3cc(C(=O)Nc4ccc(Cl)cc4)c(Cl)cc3S)n[nH]2)cc1 |  | > 100 |  | > 100 |  |  |  | > 100 |  | > 100 |  | > 100 |  | > 100 |  | > 100 |  | > 100 |  | > 100
CC(CCC(=O)O)C1CCC2C3C(O)CC4CC(O)CCC4(C)C3CC(O)C12C (configuration not stated) |  | > 100 |  | > 100 |  | > 100 |  | > 100 |  | > 100 |  | > 100 |  | > 100 |  | > 100 |  | > 100 |  | > 100
CC1OC1C(=O)C1(O)C(C)C(O)C23OC2(C(O)c2c(O)cccc2C3=O)C1O (configuration not stated) |  | 3.08 |  |  |  | 0.401 |  | 2.01 |  | 0.565 |  | 0.776 |  | 0.742 |  | 0.747 |  | 0.73 |  | 0.543
COC1=CC(=O)c2c(O)c3c(c(O)c2C1=O)C=C(C)OC3O (configuration not stated) |  | 5.73 |  | 7.9 |  | 3.74 |  | 1.57 |  | 13.3 |  | 5.07 |  | 7.12 |  | 3.97 |  | 5.83 |  | 2.25
O=C(NN1C(=O)CSC1c1ccc(C(F)(F)F)cc1)c1ccncc1 (configuration not stated) |  | > 100 |  |  |  | > 100 |  | > 100 |  | > 100 |  | > 100 |  | > 100 |  | > 100 |  | > 100 |  | > 100
CCOP(=O)(CN=C(c1ccccc1)c1ccccc1)OCC |  | > 100 |  | > 100 |  | > 100 |  | > 100 |  | > 100 |  | > 100 |  | > 100 |  | > 100 |  | > 100 |  | > 100
